Laboratory results taken from patent US8198317B2, “Methylenedioxy phenolic compounds and their use to treat disease” (The Ohio State University Research Foundation, priority 2008, dated 2012).

Tests used:
[1] = system: Human Umbilical Vein Endothelial Cells (HUVECs); assay: MTT cell toxicity assay; assay type: cell-based; conditions: HUVEC; for cells displaying toxicity: 24 hours
Experimental: Cell Culture: All experiments were performed with cultured Human Umbilical Vein Endothelial Cells (HUVECs—Gibco, Invitrogen) and grown to confluence at 37° C. in a 5% CO2 humidified incubator, on tissue culture flasks previously coated with 1% gelatin in supplemented culture medium (M199 with 10% heat inactivated fetal calf serum, 100 U/ml penicillin, 100 μg/ml streptomycin, 2 mM glutamine, 10 mM HEPES, pH 7.4, heparin 12 I.U./ml, 1% retinal derived growth factor, Sigma). Following trypsin treatment, the cells were detached from the flasks and final mono-layers were prepared by seeding HUVECs on gelatin-precoated culture plates and then incubated for 24-48 h to ensure confluence. Cells up to the fourth passage were used for all experiments. Recombinant human TNF-α was purchased from R&D Systems (Minneapolis, Minn.).
Cell Toxicity Assays: Cellular toxicity was assessed by MTT [3-(4,5-dimethylthiazol-2-yl)-2,5-diphenyltetrazolium bromide] assay, a commercially available assay for assessment of cellular viability. INV-75 was added to HUVECs for 24 hours, and toxicity assays were performed at the end of this period. The MTT assay relies on the cellular reduction of positively charged tetrazolium salts to their intensely colored formazan product by mitochondrial dehydrogenases. Formazan production is decreased in the presence of impaired mitochondrial redox function and enhanced free radical production and may, therefore, be used as an index of cell viability responses to experimental interventions.
In short, after removing microtiter plates from the incubator, fresh medium containing a fixed volume of reconstituted MTT [3-(4,5-dimethylthiazol-2-yl)-2,5-diphenyltetrazlium bromide; final concentration: 0.5 mg/ml] was added to the wells; the plates were kept at 37° C. in a 5% CO2 environment for 2 h, and then the MTT solubilization solution provided by the manufacturer was added. The formazan product formed by the conversion of positively charged tetrazolium salts to the reduced state has low aqueous solubility and is present as purple crystals. Dissolving the formazan with a solubilization buffer (provided in kit) permits the convenient quantification of its formation. Optical density at OD 570 nm is then measured for each well on an absorbance plate reader. The within- and between-assay variability was 3 and 5%, respectively. Various concentrations of INV-75 was tested in cell based assays using the MTT assay, as described above. The concentrations tested ranged from 1 mM to 10 nM and the cells were exposed for over 24 hours in duration (FIG. 2).

p65 subunit of NF-κB = assay: NF-κB translocation assay in HUVECs; assay type: cell-based, human; conditions: HUVEC
Description: NF-κB Translocation Assays: Cytokines such as TNF-α and interleukin-1 (IL-1) activate a pro-inflammatory response in endothelial cells. An early event in this response is nuclear translocation of the NF-κB transcription factor. This translocation causes the transcription of pro-inflammatory genes such as adhesion molecules VCAM-1, ICAM-1 and E-Selectin to be induced.
NF-κB is a heterodimer, composed of p65 and p50 subunits. Nuclear translocation is monitored by immunolocalization of the p65 subunit of NF-κB in fixed cells and is quantified by measuring the ratio of nuclear to cytoplasmic NF-κB signal. The nuclear translocation of NF-κB in stimulated cells such as primary human umbilical vein endothelial cells (HUVECs) therefore provides a readout that can be used to study the effects of bioactive compounds on the responsiveness of endothelium to pro-inflammatory stimuli. HUVECs were pre-treated with INV-75 at various concentrations (10 nM to 1 μM) or control (without [INV-75) for 24 hours. The media was then changed to one containing 10 ng/ml TNFα, or 1 μg/ml bovine serum albumin (vehicle) for 6 hours. p65 distribution was calculated as intensity in the cytoplasm and nucleus in regions of interest. At least 5 cells per high power field were used and at least 5 high power fields per concentration of the drug were used. The intensities were then expressed as the ratio of nuclear to cytoplasmic staining at least 5 cells per high power field. The data was then expressed as a ratio of the nuclear to cytoplasmic ratio without TNF-α.
In alternate experiments to assess NF-κB Activation extraction reagents were used to extract nuclear and cytoplasmic fraction from HUVEC cells previously treated with INV-75 at various concentrations for 6-24 hours before being stimulated with 2 ng/mL TNF-α for 6 hours. The expression of VCAM-1 and ICAM-1 were evaluated after TNF-α stimulation for 6 hours stimulation by western blot analysis. The p65 level in nuclear and cytoplasmic extracts were then analyzed by western blotting as described above.

[2] = system: New Zealand White rabbits; assay: Plasma lipid profile in NZW rabbits; assay type: in vivo, rabbit; conditions: end of treatment
Experimental: Animal Model: 15 male New Zealand White rabbits (Charles River, Mass.) were fed with high fat diet (HFD) (Harlan Teklad rabbit diet with 0.5% cholesterol, TD 87251). After 4 weeks of high fat diet, rabbits were randomized into three different treatment groups, normal control (n=5), lipoic acid (100 mg/kg/day) (n=5), INV 70-65 (100 mg/kg/day) (n=5). These drugs were administered to the animals via their chow by mixing the drugs with the high fat diet. A fixed amount of chow and drugs admixed in the chow were fed to all animals every day after carefully calculating food intake in each rabbit. Drugs were dissolved in 100% ethanol and sprayed onto the diet and kept under vacuum to let ethanol evaporate overnight. Two (2) weeks after drug or control admixed HFD, all rabbits underwent aortic balloon denudation surgeries followed by 12 weeks of continued administration of drug or controls admixed with HFD. FIG. 29 provides an outline of the experimental design.
A lipid profile (Cholesterol, Triglycerides, direct HDL, LDL and VLDL) was performed after a total of 12 weeks of treatment with the drugs. One (1) ml of blood from the ear lobe vein was placed into tubes containing K EDTA at the beginning of the high cholesterol diet and again at the time of sacrifice. All values were expressed as mean±SD. The bar graph of each group both at the baseline and the end point measurement is presented. The statistical analysis was done with one way ANOVA.

Humans = assay: Prevention or delay of onset of atherosclerosis in humans (Example 23); assay type: in vivo, human; conditions: 2 mg/kg to 50 mg/kg iv or im, one to six months
Experimental: Individuals with documented risk factors for atherosclerosis and having high plasma cholesterol levels have a ultrasound analysis of the coronary (IVUS), carotid (IMT) or popliteal arteries to establish a baseline measurement. A portion of these individuals are […] administered a composition comprising a compound of the present invention in an acceptable carrier at a dose of 2 mg/kg to 50 mg/kg intravenously (iv) or intramuscular (im) I to 3 times per week over a period of approximately one to six months. The following compounds are administered to these individuals: 3,4-methylenedioxy phenyl acetate (INV 73); 3,4-methylenedioxy-6-nitrophenol (INV 74); 3,4-methylenedioxy-6-nitrophenyl acetate (INV 75); 3,4-Methylenedioxy 6-nitro phenyl lipoate (INV-7465) or 3,4-Methylenedioxy phenyl lipoate (INV-7065). The other individuals receive the carrier alone. A new ultrasound analysis at the end of the treatment period indicates higher levels of plaque in the vessels of individuals receiving the carrier.

SMILES	cells displaying toxicity ([1]; 10 nM) [%]	cells displaying toxicity ([1]; 100 nM) [%]	cells displaying toxicity ([1]; 1 μM) [%]	cells displaying toxicity ([1]; 10 μM) [%]	cells displaying toxicity ([1]; 1 mM) [%]	nuclear p65 expression (nuclear to cytoplasmic ratio) (p65 subunit of NF-κB; 24 hours pre-treatment, then TNF-α, n=3)	concentration from which translocation of p65 to the nucleus is inhibited (p65 subunit of NF-κB; TNF-α stimulated) [nM]	LDL level compared to normal control [2]	TC level compared to normal control [2]	preventing or reducing atherosclerosis (ultrasound, versus carrier alone) (Humans)	ratio of nuclear to cytoplasmic staining of p65 (p65 subunit of NF-κB; TNF-α, at all the concentrations tested)	cell toxicity results compared with those of INV-75 ([1]; dose range of 10 nM to 100 μM)	HDL levels [2]	VLDL levels compared to controls [2]	triglyceride (TG) levels compared to controls [2]
CC(=O)Oc1cc2c(cc1[N+](=O)[O-])OCO2 [INV-75, 3,4-methylenedioxy-6-nitrophenyl acetate]	2	4	8	7	74	marked inhibition	≥ 10	moderate decreases	moderate decreases	effective	–	–	–	–	–
O=C(CCCCC1CCSS1)Oc1cc2c(cc1[N+](=O)[O-])OCO2 (stereo not drawn) [INV-7465, 3,4-Methylenedioxy 6-nitro phenyl lipoate]	–	–	–	–	–	–	–	–	–	effective	decrease	–	–	–	–
O=C(CCCCC1CCSS1)Oc1ccc2c(c1)OCO2 (stereo not drawn) [INV-7065, 3,4-Methylenedioxy phenyl lipoate]	–	–	–	–	–	–	–	lower	–	effective	–	identical	insignificant change	slight decrease	significantly decreased
